Measurements published in ChEMBL document CHEMBL6103607, “Novel Heterocyclic Piperazine Amide Derivatives as Alpha-synuclein PET Ligands for Diagnosis of Parkinson's Disease” (ACS Med Chem Lett, 2025).

target: Amyloid-beta precursor protein (Homo sapiens, UniProt P05067); experiment: Displacement of [3H]-105 from amyloid-beta (unknown origin) in human brain homogenate assessed as inhibition constant incubated for 90 mins by radioligand binding assay; format: tissue-based
Sequence (P05067 whole entry): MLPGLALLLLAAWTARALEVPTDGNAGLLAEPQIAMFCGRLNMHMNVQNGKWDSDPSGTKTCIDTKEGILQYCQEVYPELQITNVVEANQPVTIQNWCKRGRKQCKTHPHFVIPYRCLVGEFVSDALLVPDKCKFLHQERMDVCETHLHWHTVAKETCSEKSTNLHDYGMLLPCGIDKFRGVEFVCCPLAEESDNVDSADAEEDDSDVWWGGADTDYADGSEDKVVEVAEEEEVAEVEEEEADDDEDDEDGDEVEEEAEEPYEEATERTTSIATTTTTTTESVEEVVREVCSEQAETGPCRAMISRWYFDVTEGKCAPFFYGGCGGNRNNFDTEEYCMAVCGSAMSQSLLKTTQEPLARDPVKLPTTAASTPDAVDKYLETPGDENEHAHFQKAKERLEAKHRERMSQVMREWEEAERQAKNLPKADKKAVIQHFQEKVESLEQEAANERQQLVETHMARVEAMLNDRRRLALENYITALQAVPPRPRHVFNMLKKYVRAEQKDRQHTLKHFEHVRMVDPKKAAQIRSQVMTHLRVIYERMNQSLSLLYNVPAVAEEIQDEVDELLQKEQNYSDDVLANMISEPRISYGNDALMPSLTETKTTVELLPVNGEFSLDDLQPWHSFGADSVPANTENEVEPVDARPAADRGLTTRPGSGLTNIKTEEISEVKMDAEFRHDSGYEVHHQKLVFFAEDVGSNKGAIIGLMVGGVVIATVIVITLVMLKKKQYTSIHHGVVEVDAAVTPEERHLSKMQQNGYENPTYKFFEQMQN

| Structure (SMILES) | Ki |
| --- | --- |
| C[C@H]1CN(c2ccc(F)cn2)CCN1c1ncc(NC(=O)c2ccc(N3CC[C@@H](F)C3)nc2)cn1 | 12 µM |
| Cc1cocc1-c1ccc(C(=O)Nc2cnc(N3CCN(c4ccccn4)C[C@@H]3C)nc2)cn1 | 10.8 µM |
| C[C@H]1CN(c2ccccn2)CCN1c1ncc(NC(=O)c2ccc(-n3cccn3)nc2)cn1 | 10.8 µM |
| C[C@H]1CN(c2cc([N+](=O)[O-])ccn2)CCN1c1ncc(NC(=O)c2ccc(N3CC(F)(F)C3)nc2)cn1 | 12 µM |
| COC[C@H]1CN(c2ccccn2)CCN1c1ncc(NC(=O)c2ccc(-n3cccn3)nc2)cn1 | 12 µM |
| C[C@H]1CN(c2ccc(F)cn2)CCN1c1ncc(NC(=O)c2ccc(N3CCC3)nc2)cn1 | 12 µM |
| Cc1ccc(N2C[C@@H](C)N(c3ncc(NC(=O)c4ccc(-c5cncc(F)c5)nc4)cn3)[C@@H](C)C2)nc1 | 12 µM |
| C[C@H]1CN(c2ccc(F)cn2)CCN1c1ncc(NC(=O)c2ccc(N3CC(F)C3)nc2)cn1 | 12 µM |
